Columns and labels:
[1] = tested on: liver; assay: Biochemical assay of rat serum in DEN-induced hepatocellular carcinoma rat model; assay type: in vivo
Method: Hepatocellular carcinoma (HCC) is a well-known malignant liver tumor often caused by liver cirrhosis. N-Nitrosodiethylamine ([…], DEN), which is a toxic substance with strong liver toxicity, was used to induce HCC in a rat tumor model. The dose of 300 g rats was 0.75 ml DEN/5 liters in drinking water; the dose of 400 g rats was 1.0 ml DEN/5 liters in drinking water. When the rats weighed over 200 g (about 6-7 weeks), they started to be fed. Group 1 was fed a half dose DEN, while Group 3 was fed a full dose. After 6 weeks of consecutive feeding (at the 12th week of experiment), feeding DEN to Group 1 discontinued. Group 3 continued scheduled DEN feedings for three additional weeks. Liver tumors were formed and confirmed by high-frequency ultrasonic imaging in vivo.
After rats were sacrificed, blood was collected and centrifuged, and the serum from centrifuge was tested, which included albumin, total bilirubin, glutamic pyruvic transaminase and glutamic oxaloacetic transaminase. If the liver is abnormal, the albumin content in the blood will decrease. Total bilirubin contains direct bilirubin and indirect bilirubin, which are the product of liver metabolism. If liver function is abnormal, total bilirubin in blood rises. Glutamic-pyruvate transaminase (GPT) and glutamic oxaloacetic transaminase (GOT) are also commonly used markers to evaluate liver function, although these two enzymes are not only found in the liver. Nevertheless, they are more abundant in liver cells than in other organs or tissue. When the liver is damaged, inflamed liver cells release GPT and GOT into the blood in large quantities. Therefore, the amount of these factors in the blood may be useful as a basis for judging the health of liver function. In addition, the liver was made into a paraffin block and processed with H&E staining. The staining results were observed and imaged by Nikon ECLIPSE NiE orthotropic fluorescence microscope.

[2] = healthy person; cited from earlier work
[3] = ICG fluorescence dosimetry in rat blood vessels (retention/decay of ICG in circulation); assay type: in vivo
Method: Embodiments of the present disclosure enable systems and methods for detecting organ dysfunction and were validated using two optical systems to perform ICG fluorescence dosimetry on rats developing hepatocellular carcinoma (HCC).
One optical system used was a multiphoton microscope, which can non-invasively identify the location of vessels in vivo from sectioning two-photon fluorescence imaging. Time-course dynamics of concentration decay were also analyzed by the signal intensity within vessels. The other tested optical system was a point excitation and time course measurement using a 785 nm laser.
As shown in the diagram of FIG. 11, the multiphoton microscopy system used the scanning inverted microscope system of Leica DMI 3000M. The laser source was the femtosecond Cr:forsterite laser with a central wavelength of about 1250 nm. The output power was about 570 mW, and the beam diameter was about 2.5 mm. The excited light passed through a set of Galilean telescopes consisting of flat convex lenses and flat concave lenses to shrink the beam size down below 2 mm. Then, the excited beam passed through the periscope to rotate the polarization. After passing through the Iris Pair for system alignment, the beam entered a scanning module composed of a 16 kHz resonant mirror and a galvanometer mirror. The scanning angle of the resonant scanner was 5 degrees. The excited light was expanded by a set of relaying lenses so that it just filled the back aperture of the objective lens. The excitation beam was reflected by a 900-nm edged dichroic beam splitter (DM 900 SP) and focused by an objective lens (63×/NA 1.15. Zeiss) to excite biological tissues.
The generated two-photon fluorescence signals of ICG were epi-collected by the same objective lens and penetrated the DM900 SP. The signals were directed to a 484 nm edged dichroic beam splitter (DM484LP). The third harmonic generation signal (417 nm) was separated from the fluorescent signals longer than 484 nm. The third harmonic generation (THG) and two photon fluorescent (TPF) signals were filtered by a 414 nm/18 nm band pass filter and a 650 nm long pass filter, respectively. These signals were subsequently detected by photomultiplier tubes and digitized by a field programmable logic gate array (FPGA).
After the injection of ICG into the tail, there was a relatively low scattering and absorption of laser in the 1230 nm band, so the wavelength band could penetrate the skin deeper, and the background noise was low. Because blood cells can give strong THG signals, it was possible to locate the blood vessel by using THG imaging, as shown in FIG. 15A. Before ICG injection, there was no TPF signal (see FIG. 15B). After the injection, the TPF signals appeared immediately in the region of vessel (see FIG. 15C).
By selecting the region of interest (ROI) within vessel, we quantified the TPF intensity within the vessels. The fluorescence dosimetry curve of ICG can thus be measured (as shown in FIG. 16), which is ideal to evaluate the liver function. The dosimetry curve can be fitted with a single exponential decay function (red curve in FIG. 16), which represents a 4.4 minutes decay time constant after injection of ICG. The decay constant can be used as an index to evaluate the liver function. For Group 1 and Group 3 four serum parameters were measured to obtain liver function information: serum albumin, total bilirubin, GPT, and GOT. […]

[4] = Group 1: half dose DEN in drinking water, 6 weeks
[5] = Group 3: full dose DEN in drinking water, 9 weeks
[6] = Group 3 rats (full dose DEN, HCC), FIG. 18

CCN(CC)N=O [DEN, N-Nitrosodiethylamine] showed an Albumin [1, 4] of 3.9 g/dL, a GOT [1, 4] of 89 U/L and a GPT [1, 4] of 60.3 U/L. It also gave a Total bilirubin [1, 4] of 0.27 mg/dL, an Albumin [1, 5] of 3.75 g/dL and a GOT [1, 5] of 265 U/L. It also gave a GPT [1, 5] of 129 U/L and a Total bilirubin [1, 5] of 0.6 mg/dL.
For CC1(C)C(/C=C/C=C/C=C/C=C2\N(CCCCS(=O)(=O)O)c3ccc4ccccc4c3C2(C)C)=[N+](CCCCS(=O)(=O)[O-])c2ccc3ccccc3c21 [ICG, indocyanine green], the “ICG-15 (retention percentage at 15 minutes post ICG injection)” value [2] is listed as “below 10 % of the initial concentration”, the “decay time (exponential decay model fit)” value [3, 6] is listed as 13 min and the “initial amount still retained in circulation at 15 minutes post injection” value [3, 6] is listed as 45%. For the same compound, the “decay time constant after injection of ICG (single exponential decay fit)” value ([3]; healthy control Group rats, FIG. 16) was 4.4 min, the “amount of ICG metabolized within 15 minutes” value ([3]; healthy control Group rats, TPF dosimetry curve, FIG. 16) was 90% and the “leakage of ICG out of blood vessels (TPF imaging after tail injection)” value ([3]; rat, sectioning TPF/THG images, FIG. 15) was “did not leak out into extravascular spaces”.

Reference: patent US12251234B2, “Systems and methods for transdermally detecting tissue ischemia and evaluating organ function using serum luminescence” (University of Macau, priority 2018, dated 2025)
